According to patent publication US20060228405A1, “Phospholipid-based pharmaceutical formulations and methods for producing and using same” (Conforma Therapeutics Corporation, priority 2005, published 2006):

Tests used:
[1] = mean +/- SD; cited from earlier work
tail vein = assay: Intravenous injection and tolerance, tail vein injection into mice; type: in vivo; settings: phospholipid dispersion
Description: (§1) Pharmacokinetics for the solution formulation and the dispersion formulation were very similar. The method of the invention was also used to prepare dispersion formulations with the hydrochloride and phosphate salts of Compound 237. […] Dispersion formulations were also prepared using water soluble and slightly water soluble derivatives of geldanamycin. Specifically, similar dispersions containing DMAG were similarly formulated and well-tolerated upon tail vein injection into mice and rats.

rat tail vein = assay: Intravenous injection and tolerance, rat tail vein; type: in vivo; settings: phospholipid dispersion; rats
Description: as §1

[2] = Solvent stability of low melt form of 17-AAG slurried in H2O:EtOH (90:10); type: physicochemical; settings: crystals slurried in H2O:EtOH (90:10)
Description: 17-AAG may be prepared from geldanamycin via reaction with allyamine in dry THF under a nitrogen atmosphere. The crude product may be purified by slurrying in H2O:EtOH (90:10), and the washed crystals obtained have a melting point of 206-212° C. by capillary melting point technique. A second product of 17-AAG can be obtained by dissolving and recrystallizing the crude product from 2-propyl alcohol (isopropanol). This second 17-AAG product has a melting point between 147-153° C. by capillary melting point technique. […] See Examples 1-2 for details of the preparation of the two polymorphic forms of 17-AAG. In addition to the high melt and low melt forms, it is well known that 17-AAG has an amorphous form.
The 17-AAG product from Example 2 was dissolved in 400 mL of H2O:EtOH (90:10) at 25° C. Filltration followed by aging at 45° C. for 8 hr gave […] (68.6 mmol) of 17-AAG as purple crystals (95% yield, >99% pure by HPLC monitored at 254 nm). m.p.=[…]. ^1H NMR and HPLC are consistent with the desired product.

In the case of `C=CCNC1=C2C[C@@H](C)C[C@H](OC)[C@H](O)[C@@H](C)/C=C(\C)[C@H](OC(N)=O)[C@@H](OC)/C=C\C=C(/C)C(=O)NC(=CC1=O)C2=O` [Compound 17-AAG, 17-allylamino-17-desmethyl-geldanamycin], the steady-state volume [1] is listed as 86.6+34.6 L/m^2.
For `CO[C@H]1/C=C\C=C(/C)C(=O)NC2=CC(=O)C(NCCN(C)C)=C(C[C@@H](C)C[C@H](OC)[C@H](O)[C@@H](C)/C=C(\C)[C@@H]1OC(N)=O)C2=O` [DMAG, 17-N,N-dimethylaminoethylaminogeldanamycin], the “tolerance upon tail vein injection” value (tail vein) was “well-tolerated” and the “tolerance upon tail vein injection” value (rat tail vein) was “well-tolerated”.
For `C=CCNC1=C2C[C@@H](C)C[C@H](OC)[C@H](O)[C@@H](C)/C=C(\C)[C@H](OC(N)=O)[C@@H](OC)/C=C\C=C(/C)C(=O)NC(=CC1=O)C2=O` [low melt form of 17-AAG, 17-allylamino-17-desmethyl-geldanamycin], the “conversion of low melt form to high melt form” value [2] was “no conversion to the high melt form was observed”.
